Two molecules from US7335686B2, “Method and composition for treating osteoporosis” (Council of Scientific and Industrial Research, priority 2003, dated 2008) can be followed below.

For this experiment, the system named is osteoclast precursors (murine bone marrow cells). Briefly: In vitro osteoclastogenesis assay (M-CSF + RANKL, TRAP staining). Type of experiment: cell-based, Balb/c mice. The note with it: M-CSF and RANKL, TRAP-positive osteoclasts. On the procedure: Mice were sacrificed by cervical dislocation and femora and tibiae were aseptically removed and dissected free of adherent soft tissues. The bone ends were cut, and the marrow cavity was flushed out with medium MEM from one end of the bone using a sterile 21-gauge needle. The bone marrow suspension was carefully agitated with a plastic Pasteur pipette to obtain a single-cell suspension. The cells were washed twice and resuspended (10^6 cells/ml) in αMEM containing 10% FBS. […] After 24 h, nonadherent cells were harvested and layered on a Ficoll-Hypaque gradient. Cells at the gradient interface were collected, washed and resuspended (5×10^5/ml) in αMEM containing 10% FBS. In this study, we called these stromal cell-free, M-CSF-dependent, nonadherent cells as osteoclast precursors. These osteoclast precursors were added to 96-well plates (100 μl/well) containing plastic coverslips. […] Cultures were fed every 2-3 days and after incubation for 6 days osteoclast formation was evaluated by tartrate-resistant acid phosphatase (TRAP) staining. The number of TRAP-positive multinucleated cells (MNCs) containing 3 or more nuclei was scored.
TRAP is preferentially expressed at high levels in osteoclast and is considered, especially in the mouse, to be an osteoclast marker. […] Only those cells that were strongly TRAP-positive (dark red) counted by light microscopy.

Structures are written as SMILES.

As to `O=C([O-])CC[C@H](NS(=O)(=O)[O-])C(=O)[O-].O=C([O-])CC[C@H](NS(=O)(=O)[O-])C(=O)[O-].[Ca+2].[Ca+2].[Ca+2]` [compound 1, L-glutamyl-N-sulphonic acid, Ca salt], the “Effect on RANKL-induced osteoclast formation/differentiation (in words)” value was “dose dependent inhibition”.
Take `O=C(O)C[C@H](NS(=O)(=O)O)C(=O)O` [example 3, L-aspartyl, N-sulfonic acid]: the “Effect on RANKL-induced osteoclast formation/differentiation (in words)” value is “significantly inhibited osteoclast formation”.
